Results published in PMC8151276, “An Integrated Approach toward NanoBRET Tracers for Analysis of GPCR Ligand Engagement” (Molecules, 2021).

Columns and labels:
Format in all cases: binding
AGTR2 = molecular target: T1, AGTR2 (Homo sapiens, UniProt P50052); test: NanoBRET screen HiBiT-AGTR2 in HEK293
T1 construct: purchased Promega (in-house HiBiT-GPCR construct library, NanoBRET)
T1 sequence (P50052 1-363): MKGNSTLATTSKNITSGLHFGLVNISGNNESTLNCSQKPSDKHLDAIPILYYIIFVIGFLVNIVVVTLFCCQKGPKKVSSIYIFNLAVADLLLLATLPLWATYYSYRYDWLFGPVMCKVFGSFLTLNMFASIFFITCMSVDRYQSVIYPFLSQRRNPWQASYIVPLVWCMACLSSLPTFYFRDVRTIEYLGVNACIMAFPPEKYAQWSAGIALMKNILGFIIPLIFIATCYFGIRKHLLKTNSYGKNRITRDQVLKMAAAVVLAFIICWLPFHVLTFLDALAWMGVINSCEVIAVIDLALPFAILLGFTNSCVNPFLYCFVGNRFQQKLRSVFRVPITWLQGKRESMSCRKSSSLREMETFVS
Procedure: (§1) Each tracer candidate was screened across the entire library of HiBiT-GPCR constructs using NanoBRET as the detection modality. As depicted in Figure 4A, the specificity of interactions was evaluated through decrease in BRET due to competitive displacement of a bound tracer by excess parental compound. Each tracer was analyzed for binding to each HiBiT-GPCR fusion in the absence and in the presence of competing parental compound. Briefly, HEK293 cells were transfected with HiBiT-GPCR constructs diluted into promoterless DNA to reduce expression and maximize translocation to the cell surface. Each tracer candidate was then screened at concentrations of 1 μM and 0.1 μM across cells expressing these fusions. Cells were treated for 1.5 h with tracer either alone or in the presence of 20 μM competing parental compound (i.e., control). BRET was measured upon addition of purified LgBiT and subsequent complementation with HiBiT genetically fused to a GPCR. The specificity of interactions was assessed through a decrease in BRET signal due to competitive displacement of the bound tracer. To further gauge the robustness of these interactions, the fold response over the control (i.e., BRETtracer/BRETcontrol) was calculated. We chose a 1.5-fold response, which translates to ≥7-fold signal over noise as the minimal threshold required to score an interaction as positive. […]. Below we highlight the screening results obtained for our exemplary fluorescent tracers based on Clozapine, Amitriptyline and AZD1283.
(§2) HiBiT-GPCR DNA constructs were diluted in 10 mM Tris pH 8 to a final concentration of 0.01 μg/μL, arrayed in 96-well plates and stored at −20 °C. For transfection, HEK293 cells were suspended in Opti-MEM (without phenol red) supplemented with 2% fetal bovine serum (Seradigm) and 100 units/mL penicillin–streptomycin (Gibco) at a final concentration of 220,000 cells/mL and dispensed into white 96-well plates at 90 μL/well. Subsequent transfections and screens were carried using an Agilent Bravo Automated Liquid Handling Platform. First, the 96-well HiBiT DNA arrays were diluted 25-fold in Opti-MEM (without serum or phenol red) to a final concentration of 0.0004 μg/μL and 20 μL of the diluted DNAs were transferred into new 96-well plates. Next, promoterless carrier DNA (1 μg/μL) was diluted 25-fold (0.04 μg/μL) and then dispensed into the diluted arrays at 20 μL/well. Following brief mixing, Viafect transfection reagent (Promega) diluted 16-fold into Opti-MEM was dispensed into the plates at 40 μL/well. After mixing by pipetting, plates were incubated for 10 min on the pipetting station deck. The DNA-transfection reagent complexes were then added to plates containing cells. To facilitate the screen, 10 μL of DNA-transfection reagent complexes were added in duplicates to the top 4 and bottom 4 rows, resulting in two identical 48-well arrays per plate. Plates with transfected cells were incubated for 18–20 h at 37 °C/5% CO2. A screen of each tracer across the entire library using two different concentrations requires duplicate plates of transfected cells. Depending on the number of tracers being screened, transfections can be scaled up using the same ratios. The next day, for each tracer, four 20× screening solutions in tracer dilution buffer (Promega) were prepared: two duplicates at final concentration of 20 μM and two duplicates at a final concentration of 2 μM. A competing unmodified compound was added to one of each duplicate at a final concentration of 400 μM. The four resulting solutions were diluted 4-fold in Opti-MEM without serum or phenol red to generate 5× solutions (5 µM and 0.5 µM tracer +/− 100 μM competing compound). To screen the library, a BioTek MultiFlo FX liquid dispenser was used to dispense 22.5 µL of tracer solution to the top 4 rows and 22.5 µL tracer + competing compound solution to the 4 bottom rows. Plates were briefly mixed on an orbital shaker and incubated for 1.5 h at room temperature. […]

P2RY2 = molecular target: T2, P2RY2 (Homo sapiens, UniProt P41231); test: NanoBRET screen HiBiT-P2RY2 in HEK293
T2 construct: purchased Promega (in-house HiBiT-GPCR construct library, NanoBRET)
T2 sequence (P41231 whole entry): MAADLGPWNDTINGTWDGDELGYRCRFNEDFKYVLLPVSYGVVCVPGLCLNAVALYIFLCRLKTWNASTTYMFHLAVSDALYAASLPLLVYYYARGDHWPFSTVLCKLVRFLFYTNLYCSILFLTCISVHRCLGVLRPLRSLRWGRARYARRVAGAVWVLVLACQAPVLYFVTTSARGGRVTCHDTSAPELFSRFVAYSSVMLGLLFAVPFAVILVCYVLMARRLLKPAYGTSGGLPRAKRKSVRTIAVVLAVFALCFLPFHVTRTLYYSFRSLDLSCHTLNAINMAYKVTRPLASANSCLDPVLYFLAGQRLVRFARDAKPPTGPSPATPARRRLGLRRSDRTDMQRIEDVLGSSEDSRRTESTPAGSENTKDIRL
Procedure: as §1, §2

P2RY10 = molecular target: T3, P2RY10 (Homo sapiens, UniProt O00398); test: NanoBRET screen HiBiT-P2RY10 in HEK293
T3 construct: purchased Promega (in-house HiBiT-GPCR construct library, NanoBRET)
T3 sequence (O00398 whole entry, one chain of several): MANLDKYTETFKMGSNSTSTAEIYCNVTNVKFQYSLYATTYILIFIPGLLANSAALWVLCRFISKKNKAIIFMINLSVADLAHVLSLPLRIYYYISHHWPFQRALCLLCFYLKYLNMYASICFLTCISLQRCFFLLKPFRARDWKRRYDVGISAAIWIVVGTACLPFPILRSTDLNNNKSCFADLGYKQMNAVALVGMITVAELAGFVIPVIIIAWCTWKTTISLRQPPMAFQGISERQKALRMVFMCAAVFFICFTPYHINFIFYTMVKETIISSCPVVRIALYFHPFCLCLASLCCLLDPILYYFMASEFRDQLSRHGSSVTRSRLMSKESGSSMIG
Procedure: as §1, §2

BRS3 = molecular target: T4, BRS3 (Homo sapiens, UniProt P32247); test: NanoBRET screen HiBiT-BRS3 in HEK293
T4 construct: purchased Promega (in-house HiBiT-GPCR construct library, NanoBRET)
T4 sequence (P32247 1-399): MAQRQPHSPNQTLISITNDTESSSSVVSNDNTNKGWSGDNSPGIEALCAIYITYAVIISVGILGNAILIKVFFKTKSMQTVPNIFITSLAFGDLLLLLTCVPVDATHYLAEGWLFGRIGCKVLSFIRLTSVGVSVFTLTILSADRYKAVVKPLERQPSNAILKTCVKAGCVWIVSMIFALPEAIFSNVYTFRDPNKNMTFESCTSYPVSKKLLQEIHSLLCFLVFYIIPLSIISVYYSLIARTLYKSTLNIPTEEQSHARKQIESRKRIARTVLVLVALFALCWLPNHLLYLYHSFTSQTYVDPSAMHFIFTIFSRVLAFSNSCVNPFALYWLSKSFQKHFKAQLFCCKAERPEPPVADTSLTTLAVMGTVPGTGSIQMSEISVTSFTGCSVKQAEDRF
Procedure: as §1, §2

MTNR1B = molecular target: T5, MTNR1B (Homo sapiens, UniProt P49286); test: NanoBRET screen HiBiT-MTNR1B in HEK293
T5 construct: purchased Promega (in-house HiBiT-GPCR construct library, NanoBRET)
T5 sequence (P49286 1-362): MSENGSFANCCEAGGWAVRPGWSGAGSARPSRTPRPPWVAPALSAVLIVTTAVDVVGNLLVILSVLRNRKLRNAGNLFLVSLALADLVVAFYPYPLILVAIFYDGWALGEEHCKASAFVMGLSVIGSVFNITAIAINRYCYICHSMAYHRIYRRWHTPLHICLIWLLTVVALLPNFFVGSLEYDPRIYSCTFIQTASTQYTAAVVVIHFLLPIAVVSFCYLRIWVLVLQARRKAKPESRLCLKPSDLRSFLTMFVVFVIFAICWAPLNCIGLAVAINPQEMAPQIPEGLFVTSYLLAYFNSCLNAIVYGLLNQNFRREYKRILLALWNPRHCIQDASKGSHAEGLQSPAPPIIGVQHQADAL
Procedure: as §1, §2

GCGR = molecular target: T6, GCGR (Homo sapiens, UniProt P47871); test: NanoBRET screen HiBiT-GCGR in HEK293
T6 construct: purchased Promega (in-house HiBiT-GPCR construct library, NanoBRET)
T6 sequence (P47871 26-477): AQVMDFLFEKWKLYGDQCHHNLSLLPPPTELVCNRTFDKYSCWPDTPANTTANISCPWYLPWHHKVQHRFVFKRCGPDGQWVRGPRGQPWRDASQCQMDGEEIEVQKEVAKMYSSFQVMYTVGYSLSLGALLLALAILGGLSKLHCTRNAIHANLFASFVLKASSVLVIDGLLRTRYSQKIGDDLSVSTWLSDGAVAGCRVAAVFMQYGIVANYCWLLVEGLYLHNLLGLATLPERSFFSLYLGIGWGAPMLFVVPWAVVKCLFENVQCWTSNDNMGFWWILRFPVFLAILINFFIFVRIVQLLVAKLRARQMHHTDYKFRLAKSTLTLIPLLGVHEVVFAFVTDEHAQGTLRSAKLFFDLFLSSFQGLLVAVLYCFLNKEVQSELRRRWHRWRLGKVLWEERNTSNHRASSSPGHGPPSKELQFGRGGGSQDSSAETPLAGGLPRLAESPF
Procedure: as §1, §2

SMILES	NanoBRET Fold Response (AGTR2; 0.1μM tracer)	NanoBRET Fold Response (AGTR2; 1μM tracer)	NanoBRET Fold Response (P2RY2; 0.1μM tracer)	NanoBRET Fold Response (P2RY2; 1μM tracer)	NanoBRET Fold Response (P2RY10; 0.1μM tracer)	NanoBRET Fold Response (P2RY10; 1μM tracer)	NanoBRET Fold Response (BRS3; 0.1μM tracer)	NanoBRET Fold Response (BRS3; 1μM tracer)	NanoBRET Fold Response (AGTR2; AGTR2, tracer 0.1μM)	NanoBRET Fold Response (AGTR2; AGTR2, tracer 1μM)	NanoBRET Fold Response (P2RY2; P2RY2, tracer 0.1μM)	NanoBRET Fold Response (P2RY2; P2RY2, tracer 1μM)	NanoBRET Fold Response (P2RY10; P2RY10, tracer 0.1μM)	NanoBRET Fold Response (P2RY10; P2RY10, tracer 1μM)	NanoBRET Fold Response (BRS3; BRS3, tracer 0.1μM)	NanoBRET Fold Response (BRS3; BRS3, tracer 1μM)	NanoBRET Fold Response (MTNR1B; MTNR1B, tracer 0.1μM)	NanoBRET Fold Response (MTNR1B; MTNR1B, tracer 1μM)	NanoBRET Fold Response (GCGR; GCGR, tracer 0.1μM)	NanoBRET Fold Response (GCGR; GCGR, tracer 1μM)	other results
COc1ccc2[nH]c(-c3ccc(CNC(=O)CCOCCOCCOCCOCCNC(=O)CCc4ccc5n4[B-](F)(F)[N+]4=C(c6ccc[nH]6)C=CC4=C5)cc3)c(CCNC(C)=O)c2n1 [AzomelatoninICO9-2-NB590]	0.88	0.95	1.06	1.09	0.88	1.15	0.86	0.91													NanoBRET Fold Response (MTNR1B; 0.1μM tracer): 2.05; NanoBRET Fold Response (MTNR1B; 1μM tracer): 2.32; NanoBRET Fold Response (GCGR; 0.1μM tracer): 0.90; NanoBRET Fold Response (GCGR; 1μM tracer): 1.05
CCCn1c(=O)c2[nH]c(-c3ccc(OCC(=O)NCCNC(=O)CCOCCNC(=O)c4ccc(CNC(=O)CCc5ccc6n5[B-](F)(F)[N+]5=C(c7ccc[nH]7)C=CC5=C6)cc4)cc3)nc2n(CCC)c1=O [XAC-3-NB590]									1.24	1.09	0.96	0.95	0.88	0.84	0.95	1.04	1.07	1.05	1.03	0.96	
COc1ccccc1N1CCN(CCCCN2C(=O)c3ccc(CNC(=O)CCOCCNC(=O)c4ccc(CNC(=O)CCc5ccc6n5[B-](F)(F)[N+]5=C(c7ccc[nH]7)C=CC5=C6)cc4)cc3C2=O)CC1 [NAN-190-3-NB590]									0.99	0.90	1.00	1.01	1.23	1.08	0.95	1.02	1.20	1.15	0.84	0.76	
O=C(CCc1ccc2n1[B-](F)(F)[N+]1=C(c3ccc[nH]3)C=CC1=C2)NCc1ccc(C(=O)NCCOCCOCCNCC(O)COc2cccc3ccccc23)cc1 (stereo not drawn) [Propranolol-3-NB590]																					NanoBRET Fold Response (AGTR2; AGTR2, 0.1μM): 0.95; NanoBRET Fold Response (AGTR2; AGTR2, 1μM): 0.99; NanoBRET Fold Response (P2RY2; P2RY2, 0.1μM): 1.07; NanoBRET Fold Response (P2RY2; P2RY2, 1μM): 1.03; NanoBRET Fold Response (P2RY10; P2RY10, 0.1μM): 1.34; NanoBRET Fold Response (P2RY10; P2RY10, 1μM): 0.95; NanoBRET Fold Response (BRS3; BRS3, 0.1μM): 1.03; NanoBRET Fold Response (BRS3; BRS3, 1μM): 1.08; NanoBRET Fold Response (MTNR1B; MTNR1B, 0.1μM): 0.96; NanoBRET Fold Response (MTNR1B; MTNR1B, 1μM): 0.98; NanoBRET Fold Response (GCGR; GCGR, 0.1μM): 1.03; NanoBRET Fold Response (GCGR; GCGR, 1μM): 0.96
COc1ccc2c(n1)c(CCNC(C)=O)cn2CCNC(=O)CCc1ccc2n1[B-](F)(F)[N+]1=C(c3ccc[nH]3)C=CC1=C2 [Azamelatonin-1-NB590]	1.23	0.87	0.93	0.93	0.88	0.88	0.95	0.95													NanoBRET Fold Response (MTNR1B; 0.1μM tracer): 1.07; NanoBRET Fold Response (MTNR1B; 1μM tracer): 1.12; NanoBRET Fold Response (GCGR; 0.1μM tracer): 1.01; NanoBRET Fold Response (GCGR; 1μM tracer): 1.10
O=C(CCOCCOCCOCCOCCNC(=O)CCc1ccc2n1[B-](F)(F)[N+]1=C(c3ccc[nH]3)C=CC1=C2)NCCCN1CCN(C2=Nc3ccccc3Oc3ccc(Cl)cc32)CC1 [Loxapine-a-2-NB590]									1.00	1.01	0.99	1.05	1.14	0.98	0.99	1.20	0.44	1.04	1.05	1.24	
